# Biological target: purified human, His-tagged PRC2 complex (Homo sapiens, UniProt O75530+Q15910)
# Experiment: Hot Spot HMT assay: inhibition of PRC2 enzymatic activity (transfer of tritiated methyl from SAM to core histone, filter binding)
# Type: biochemical
# Details: Inhibition of PRC2-mediated enzymatic activity; 10 nM PRC2 complex, 0.05 mg/ml core histone H3, 1 uM 3H-SAM, 1 hr at 30°C
# Source text: The assay uses purified human, His-tagged PRC2 complex, including N-terminal His-tagged EZH2 enzyme, N-terminal Flag-tagged embryonic ectoderm development protein (EED), N-terminal His-tagged suppressor of zeste 12 (SUZ12), N-terminal His-tagged AEBP2, and N-terminal His-tagged RbAp48. In this assay, the transfer of the tritiated methyl group from radiolabeled S-adenosyl methionine (SAM) to purified core histone protein by EZH2 is quantitated after filtration to determine the activity of the core PRC2 complex in the presence and absence of compound.
# The initial starting concentration for the serial dilutions of each compound was 1.0 µM. […] SAH (S-(5-adenosyl)-L-homocysteine) was used as a positive control for assay validation.
# An aliquot of each serial dilution of test compound was added to deep 384 well plate using Acoustic Technology instrument (Echo 550, LabCyte) containing reaction buffer (50 mM Tris-HCl (pH 8.)), 0.01% Brij35, 1 mM EDTA, 1 mM DTT, 1 mM PMSF and 1% DMSO), 10 nM purified PRC2 complex and 0.05 mg/ml core histone H3 in a 5 µl volume. The reaction was mixed gently and then pre-incubated for 20 min at 30°C. The enzymatic reaction was initiated by adding 1 uM S-Adenosyl-L-[methyl - ^3H]methionine and incubated for 1 hr at 30°C. After 1 hr, the reaction product was detected using a filter binding method and the amount of tritiated H3 core histone was quantitated using a scintillation counter.
# Chain of purified human, His-tagged PRC2 complex (Q15910 whole entry): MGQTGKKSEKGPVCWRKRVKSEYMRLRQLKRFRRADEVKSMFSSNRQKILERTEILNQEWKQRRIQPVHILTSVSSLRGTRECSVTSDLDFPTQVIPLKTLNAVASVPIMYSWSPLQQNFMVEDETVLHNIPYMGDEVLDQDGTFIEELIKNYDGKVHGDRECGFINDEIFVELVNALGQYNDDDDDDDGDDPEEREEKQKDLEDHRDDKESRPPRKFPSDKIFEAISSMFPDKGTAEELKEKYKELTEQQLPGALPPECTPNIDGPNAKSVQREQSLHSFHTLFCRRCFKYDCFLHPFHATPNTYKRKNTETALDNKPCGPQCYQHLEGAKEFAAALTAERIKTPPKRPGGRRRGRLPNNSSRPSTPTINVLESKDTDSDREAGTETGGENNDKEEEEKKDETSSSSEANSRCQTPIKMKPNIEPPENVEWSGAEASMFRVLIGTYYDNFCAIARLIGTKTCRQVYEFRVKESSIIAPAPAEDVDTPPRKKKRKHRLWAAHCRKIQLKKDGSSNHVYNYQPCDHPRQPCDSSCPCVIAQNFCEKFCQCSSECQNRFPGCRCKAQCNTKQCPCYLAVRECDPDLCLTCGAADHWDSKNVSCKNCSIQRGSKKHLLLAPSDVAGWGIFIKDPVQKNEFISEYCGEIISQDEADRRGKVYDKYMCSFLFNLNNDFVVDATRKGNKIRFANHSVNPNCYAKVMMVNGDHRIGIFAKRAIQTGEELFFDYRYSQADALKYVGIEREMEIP
# Chain of purified human, His-tagged PRC2 complex (O75530 whole entry): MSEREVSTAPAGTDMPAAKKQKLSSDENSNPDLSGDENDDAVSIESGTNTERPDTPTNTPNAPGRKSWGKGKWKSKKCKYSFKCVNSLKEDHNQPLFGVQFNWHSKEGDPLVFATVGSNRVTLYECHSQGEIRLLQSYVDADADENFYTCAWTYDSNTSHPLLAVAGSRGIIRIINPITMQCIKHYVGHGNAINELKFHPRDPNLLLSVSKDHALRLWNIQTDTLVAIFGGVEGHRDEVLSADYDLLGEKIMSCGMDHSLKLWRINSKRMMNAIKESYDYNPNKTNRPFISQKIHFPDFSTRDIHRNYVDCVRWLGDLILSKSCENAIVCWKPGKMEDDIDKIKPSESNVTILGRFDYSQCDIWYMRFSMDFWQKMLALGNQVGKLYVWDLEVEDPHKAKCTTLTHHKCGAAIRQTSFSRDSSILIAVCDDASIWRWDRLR
# Chain of purified human, His-tagged PRC2 complex (Q15022 whole entry partner): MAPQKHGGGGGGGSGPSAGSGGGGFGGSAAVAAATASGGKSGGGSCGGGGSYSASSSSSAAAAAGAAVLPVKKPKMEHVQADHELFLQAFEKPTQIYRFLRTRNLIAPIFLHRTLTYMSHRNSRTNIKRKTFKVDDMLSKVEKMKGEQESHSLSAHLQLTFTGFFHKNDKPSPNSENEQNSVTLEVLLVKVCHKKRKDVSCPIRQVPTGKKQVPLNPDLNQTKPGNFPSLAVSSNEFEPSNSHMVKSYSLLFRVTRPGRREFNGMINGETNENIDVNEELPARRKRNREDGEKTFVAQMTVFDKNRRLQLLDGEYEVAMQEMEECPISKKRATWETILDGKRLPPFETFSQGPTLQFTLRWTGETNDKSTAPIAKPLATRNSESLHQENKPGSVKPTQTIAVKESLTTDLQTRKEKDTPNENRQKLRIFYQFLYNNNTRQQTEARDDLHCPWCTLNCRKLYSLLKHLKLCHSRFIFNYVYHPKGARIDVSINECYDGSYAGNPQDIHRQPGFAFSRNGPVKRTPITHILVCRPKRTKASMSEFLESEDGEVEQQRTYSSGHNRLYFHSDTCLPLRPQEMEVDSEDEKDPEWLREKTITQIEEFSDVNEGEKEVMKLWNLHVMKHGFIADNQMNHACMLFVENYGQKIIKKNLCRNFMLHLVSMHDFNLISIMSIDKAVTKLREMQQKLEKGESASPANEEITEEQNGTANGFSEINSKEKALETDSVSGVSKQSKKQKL
# Chain of purified human, His-tagged PRC2 complex (Q6ZN18 whole entry partner): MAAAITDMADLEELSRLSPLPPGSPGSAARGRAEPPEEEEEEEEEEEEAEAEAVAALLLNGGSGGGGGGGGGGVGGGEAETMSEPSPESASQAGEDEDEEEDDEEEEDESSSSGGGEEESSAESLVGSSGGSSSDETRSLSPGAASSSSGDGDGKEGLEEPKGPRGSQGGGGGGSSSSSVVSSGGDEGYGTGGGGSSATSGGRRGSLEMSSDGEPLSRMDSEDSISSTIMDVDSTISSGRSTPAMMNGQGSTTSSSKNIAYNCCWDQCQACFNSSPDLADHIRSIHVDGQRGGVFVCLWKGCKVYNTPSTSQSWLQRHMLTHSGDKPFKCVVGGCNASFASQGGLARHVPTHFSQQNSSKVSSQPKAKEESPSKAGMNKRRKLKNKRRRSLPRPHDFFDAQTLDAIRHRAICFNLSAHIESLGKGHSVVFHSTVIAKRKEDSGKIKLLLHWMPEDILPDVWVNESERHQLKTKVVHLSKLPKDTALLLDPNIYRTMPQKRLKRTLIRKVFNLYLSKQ
# Chain of purified human, His-tagged PRC2 complex (Q09028 whole entry partner): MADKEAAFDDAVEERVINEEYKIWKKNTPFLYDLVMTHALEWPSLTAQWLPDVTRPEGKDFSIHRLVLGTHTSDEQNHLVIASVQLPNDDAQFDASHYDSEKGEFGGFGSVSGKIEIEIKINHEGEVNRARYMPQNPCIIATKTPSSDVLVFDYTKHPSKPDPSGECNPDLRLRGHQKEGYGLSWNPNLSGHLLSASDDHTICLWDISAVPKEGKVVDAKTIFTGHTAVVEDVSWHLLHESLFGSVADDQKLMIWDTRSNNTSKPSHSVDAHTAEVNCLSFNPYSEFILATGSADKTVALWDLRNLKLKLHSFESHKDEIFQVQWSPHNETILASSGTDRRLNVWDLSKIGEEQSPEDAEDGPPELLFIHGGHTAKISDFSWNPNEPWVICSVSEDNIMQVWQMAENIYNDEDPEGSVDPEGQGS
row,IC50 [nM],Compound
1,< 100,"Cc1nc(OC(C)C)ncc1-c1cnc(NCc2c(F)ccc3c2CCO3)n2cc(C#N)nc12 [Example 89, 5-(((5-fluoro-2,3-dihydrobenzofuran-4-yl)methyl)amino)-8-(2-isopropoxy-4-methylpyrimidin-5-yl)imidazo[1,2-c]pyrimidine-2-carbonitrile]"
2,< 100,"CN(C)Cc1ccc(-c2cnc(NCc3c(F)ccc4c3CCO4)n3cc(C#N)nc23)cc1 [Example 112, 8-(4-((dimethylamino)methyl)phenyl)-5-(((5-fluoro-2,3-dihydrobenzofuran-4-yl)methyl)amino)imidazo[1,2-c]pyrimidine-2-carbonitrile]"
3,< 100,"CC(=O)Nc1cc(-c2cnc(NCc3c(F)ccc4c3CCO4)n3cc(C#N)nc23)ccn1 [Example 131, N-(4-(2-cyano-5-(((5-fluoro-2,3-dihydrobenzofuran-4-yl)methyl)amino)imidazo[1,2-c]pyrimidin-8-yl)pyridin-2-yl)acetamide]"
4,100 to 500,"5-(((5-fluoro-2,3-dihydrobenzofuran-4-yl)methyl)amino)-8-(4-methyl-1H-imidazol-1-yl)imidazo[1,2-c]pyrimidine-2-carboxamide [Example 17]"
5,> 500,"N#Cc1cn2c(NCc3c(F)ccc4c3CCO4)ncc(-c3cnn(C4CCOCC4)c3)c2n1 [Example 120, 5-(((5-fluoro-2,3-dihydrobenzofuran-4-yl)methyl)amino)-8-(1-(tetrahydro-2H-pyran-4-yl)-1H-pyrazol-4-yl)imidazo[1,2-c]pyrimidine-2-carbonitrile]"
6,100 to 500,"Cc1nn(C(C)C)c(C)c1-c1cnc(NCc2c(F)ccc3c2CCO3)n2cc(C#N)nc12 [Example 92, 5-(((5-fluoro-2,3-dihydrobenzofuran-4-yl)methyl)amino)-8-(1-isopropyl-3,5-dlmethyl-1H-pyrazol-4-yl)imidazo[1,2-c]pyrimidine-2-carbonitrile]"
7,< 100,"CC(C)n1cc(-c2cnc(NCc3c(F)ccc4c3CCO4)n3cc(C#N)nc23)cn1 [Example 99, 5-(((5-fluoro-2,3-dihydrobenzofuran-4-yl)methyl)amino)-8-(1-isopropyl-1H-pyrazol-4-yl)imidazo[1,2-c]pyrimidine-2-carbonitrile]"
8,< 100,"N#Cc1cn2c(NCc3c(F)ccc4c3CCO4)ncc(-c3ccc(C4COCCN4)cc3)c2n1 (centres unmarked) [Example 225, 5-(((5-fluoro-2,3-dihydrobenzofuran-4-yl)methyl)amino)-8-(4-(morpholin-3-yl)phenyl)imidazo[1,2-c]pyrimidine-2-carbonitrile]"
9,100 to 500,"N#Cc1cn2c(NCc3c(F)ccc4c3CCO4)ncc(-c3cnn(Cc4cccnc4)c3)c2n1 [Example 101, 5-(((5-fluoro-2,3-dihydrobenzofuran-4-yl)methyl)amino)-8-(1-(pyridin-3-ylmethyl)-1H-pyrazol-4-yl)imidazo[1,2-c]pyrimidine-2-carbonitrile]"
10,< 100,"N#Cc1cn2c(NCc3c(F)ccc4c3CCO4)ncc(-c3ccc(CN4CCC(O)C4)cc3)c2n1 (centres unmarked) [Example 151, 5-(((5-fluoro-2,3-dihydrobenzofuran-4-yl)methyl)amino)-8-(4-((3-hydroxypyrrolidin-1-yl)methyl)phenyl)imidazo[1,2-c]pyrimidine-2-carbonitrile]"
11,100 to 500,"N#Cc1cn2c(NCc3c(F)ccc4c3CCO4)ncc(-c3ccnn3CCO)c2n1 [Example 231, 5-(((5-fluoro-2,3-dihydrobenzofuran-4-yl)methyl)amino)-8-(1-(2-hydroxyethyl)-1H-pyrazol-5-yl)imidazo[1,2-c]pyrimidine-2-carbonitrile]"
12,100 to 500,"CN(C)CCn1cc(-c2cnc(NCc3c(F)ccc4c3CCO4)n3cc(C#N)nc23)cn1 [Example 102, 8-(1-(2-(dimethylamino)ethyl)-1H-pyrazol-4-yl)-5-(((5-fluoro-2,3-dihydrobenzofuran-4-yl)methyl)amino)imidazo[1,2-c]pyrimidine-2-carbonitrile]"
13,100 to 500,"N#Cc1cn2c(NCc3c(F)ccc4c3CCO4)ncc(-c3n[nH]cc3Br)c2n1 [Example 232, 8-(4-bromo-1H-pyrazol-3-yl)-5-(((5-fluoro-2,3-dihydrobenzofuran-4-yl)methyl)amino)imidazo[1,2-c]pyrimidine-2-carbonitrile]"
14,100 to 500,"Cc1ncccc1-c1cnc(NCc2c(F)ccc3occc23)n2cc(C#N)nc12 [Example 22, 5-(((5-fluorobenzofuran-4-yl)methyl)amino)-8-(2-methylpyridin-3-yl)imidazo[1,2-c]pyrimidine-2-carbonitrile]"
15,100 to 500,"Cc1nc(C2CC2)ncc1-c1cnc(NCc2c(F)ccc3c2CCO3)n2cc(C(N)=O)nc12 [Example 15, 8-(2-cyclopropyl-4-methylpyrimidin-5-yl)-5-(((5-fluoro-2,3-dihydrobenzofuran-4-yl)methyl)amino)imidazo[1,2-c]pyrimidine-2-carboxamide]"
16,< 100,"Cc1n[nH]cc1-c1cnc(NCc2c(F)ccc3c2CCO3)n2cc(C#N)nc12 [Example 79, 5-(((5-fluoro-2,3-dihydrobenzofuran-4-yl)methyl)amino)-8-(3-methyl-1H-pyrazol-4-yl)imidazo[1,2-c]pyrimidine-2-carbonitrile]"
17,< 100,"Cc1cc(-c2cnc(NCc3c(F)ccc4occc34)n3cc(C(N)=O)nc23)n(C)n1 [Example 18, 8-(1,3-dimethyl-1H-pyrazol-5-yl)-5-(((5-fluorobenzofuran-4-yl)methyl)amino)imidazo[1,2-c]pyrimidine-2-carboxamide]"
18,100 to 500,"Cc1nn(C(C)C)cc1-c1cnc(NCc2c(F)ccc3c2CCO3)n2cc(C#N)nc12 [Example 23, 5-(((5-fluoro-2,3-dihydrobenzofuran-4-yl)methyl)amino)-8-(1-isopropyl-3-methyl-1H-pyrazol-4-yl)imidazo[1,2-c]pyrimidine-2-carbonitrile]"
19,100 to 500,"Cc1cc(-c2cnc(NCc3cccc4c3CCO4)n3cc(C#N)nc23)n(C)n1 [Example 30, 5-(((2,3-dihydrobenzofuran-4-yl)methyl)amino)-8-(1,3-dimethyl-1H-pyrazol-5-yl)imidazo[1,2-c]pyrimidine-2-carbonitrile]"
20,< 100,"CN(C)C(=O)c1cc(Cl)c(-c2cnc(NCc3c(F)ccc4c3CCO4)n3cc(C#N)nc23)cc1F [Example 35, 5-chloro-4-(2-cyano-5-(((5-fluoro-2,3-dlhydrobenzofuran-4-yl)methyl)amino)imidazo[1,2-c]pyrimidin-8-yl)-2-fluoro-N,N-dimethylbenzamide]"
21,> 500,"8-(1,3-dimethyl-1H-pyrazol-5-yl)-5-(((6-fluorochroman-5-yl)methyl)amino)imidazo[1,2-c]pyrimidine-2-carbonitrile [Example 122]"

row,Compound,IC50 [nM]
1,"Cc1cn(-c2cnc(NCc3c(F)ccc4c3CCO4)n3cc(C(=O)O)nc23)cn1 [Example 4, 5-(((5-fluoro-2,3-dihydrobenzofuran-4-yl)methyl)amino)-8-(4-methyl-1H-imidazol-1-yl)imidazo[1,2-c]pyrimidine-2-carboxylic acid]",< 100

# Test system: Karpas 422 cells
# Experiment: Karpas 422 cell viability, CTG (Cell Titre Glo) assay
# Type: cell-based, human
# Details: Homo sapiens; Inhibition of proliferation of Karpas 422 cells (EZH2 Y641N); viability measured Day 4, Day 7 or Day 11, time point of the tabulated values not stated
# Description: Karpas 422 cell line is a human B cell non-Hodgkin's lymphoma cell line established from a patient having DLBCL. This EZH2 heterozygotic cell line expresses a mutant form of EZH2 enzyme (Y641N) that increases histone H3 methylation and this mutation has been implicated in the tumorgenesis of lymphomas, such as DLBCL.
# Karpas 422 cells (PHE cat no., 06101702) were cultured in RPMI medium supplemented with 20% fetal bovine serum and 1% penicillin/1% streptomycin and plated at a density of 1000 cells/90 µl/well in 96 well white assay plates. A dose response curve for compounds of the present invention was determined by adding a 10µl aliquot of stock solutions of varying concentrations of compounds to the same medium in each well, over a concentration range of 10µM using 3-fold dilutions to a final concentration of 1.5nM. The plates were incubated at 37° C for predetermined time periods, Day 4, Day 7, or Day 11, and the viability of the cells was measured using a CTG assay kit (Cell Titre Glo; Promega cat.no G7573) on Day 4 and Day 7 in accordance with the manufacturer's instructions.
# For the viability assay for the Day 11 plates, the plates were subjected to centrifugation at 1100 rpm for five minutes on Day 7 and the supernatant was removed by aspiration. The cells were resuspended in 90 µl aliquot of the appropriate growth medium lacking the compound followed by addition of 10 µl of a 10X stock of the same compound at the same concentration. The viability of the Day 11 cells was measured using the CTG assay kit described above in accordance with the manufacturer's instructions. The IC50 values for each compound at each predetermined time point were calculated using Graph pad PRISM software and the results are shown in Table 15. A = ≤250 nM; B = […] - ≤500 nM; and C = >500 nM.
row,IC50 [nM],Compound
1,≤ 250,"Cc1nc(OC(C)C)ncc1-c1cnc(NCc2c(F)ccc3c2CCO3)n2cc(C#N)nc12 [Example 89, 5-(((5-fluoro-2,3-dihydrobenzofuran-4-yl)methyl)amino)-8-(2-isopropoxy-4-methylpyrimidin-5-yl)imidazo[1,2-c]pyrimidine-2-carbonitrile]"
2,≤ 250,"CN(C)Cc1ccc(-c2cnc(NCc3c(F)ccc4c3CCO4)n3cc(C#N)nc23)cc1 [Example 112, 8-(4-((dimethylamino)methyl)phenyl)-5-(((5-fluoro-2,3-dihydrobenzofuran-4-yl)methyl)amino)imidazo[1,2-c]pyrimidine-2-carbonitrile]"
3,≤ 250,"Cc1cc(S(C)(=O)=O)ccc1-c1cnc(NCc2c(F)ccc3c2CCO3)n2cc(C#N)nc12 [Example 87, 5-(((5-fluoro-2,3-dihydrobenzofuran-4-yl)methyl)amino)-8-(2-methyl-4-(methylsulfonyl)phenyl)imidazo[1,2-c]pyrimidine-2-carbonitrile]"

row,Compound,IC50 [nM]
1,"Cc1cn(-c2cnc(NCc3c(F)ccc4c3CCO4)n3cc(C#N)nc23)cn1 [Example 139, 5-(((5-fluoro-2,3-dihydrobenzofuran-4-yl)methyl)amino)-8-(4-methyl-1H-imidazol-1-yl)imidazo[1,2-c]pyrimidine-2-carbonitrile]",≤ 250

# — EP4043466B1, “PRC2 INHIBITORS” (Mirati Therapeutics, Inc., priority 2018, dated 2019)
